{"source": "patent EP2386631A1", "about": "“Purified lipase, methods of modification and applications” (Universiti Putra Malaysia, priority 2010, dated 2011)", "key": {"[1]": {"system": "205y lipase (-SP/TM)", "test": "Effect of surfactants on lipase activity", "assay_type": "biochemical, Bacillus sphaericus 205y", "details": "0.1% surfactant (text: 1 mM), 37°C, 30 min prior to lipase assay, mean ± SD, n=3", "procedure": "The activity of 205y lipase (-SP/TM) towards surfactants was determined by preincubating the enzyme with various surfactants at a concentration of 1 mM at 37°C for 30 min. The surfactants used were Tween 20, Tween 40, Tween 60, Tween 80, Triton X-100, sodium dodecyl sulphate (SDS) and sodium lauryl sulphate (SLS). Residual activity was measured colorimetrically and expressed as percentage of activity without surfactant. […]. Table 7. Effect of surfactants on 205y lipase (-SP/TM) activity"}, "[2]": {"system": "205y lipase (-SP/TM)", "test": "Effect of inhibitors on lipase activity", "assay_type": "biochemical, Bacillus sphaericus 205y", "details": "for Relative activity (100%): 37°C, 30 min prior to lipase assay, mean ± SD, n=3", "procedure": "The effect of inhibitors were tested on 205y lipase (-SP/TM) activity by preincubating the enzyme with dithiothreitol (DTT), β-mercaptoethanol, phenylmethylsulfonyl fluoride (PMSF), ethylenediaminetetraacetic acid ([…]) except for pepstatin A (1 mM). The residual activity was measured at optimum temperature and expressed as percentage of activity without inhibitor."}, "[3]": {"system": "205y lipase (-SP/TM)", "test": "Effect of organic solvents on lipase activity", "assay_type": "biochemical, Bacillus sphaericus 205y", "details": "enzyme:solvent 3:1 v/v, 37°C, 30 min; relative to activity without organic solvent", "procedure": "The activity of 205 lipase (-SP/TM) towards the presence of organic solvents was tested by preincubating a mixture of purified enzyme with organic solvents (3:1, v/v) for 30 min at agitation rate of 200 rpm. Residual activity was measured at optimum temperature and expressed as percentage of activity without organic solvent. […] Mixture of enzyme and organic solvent (3:1 v/v) was incubated at 37°C for 30 min and the residual activity was measured using spectrophotometric method."}, "[4]": {"system": "wild type organic solvent stable lipase secreted by Bacillus sphaericus 205y", "details": "presence of the solvent; cited from earlier work"}, "[5]": {"details": "cited from earlier work"}, "[6]": {"system": "205y lipase (-SP/TM)", "test": "Effect of metal ions on lipase activity", "assay_type": "biochemical, Bacillus sphaericus 205y", "details": "1 mM metal chloride, 50 mM potassium phosphate buffer pH 8.0, 37°C, 30 min", "procedure": "The effect of metal ions on lipase activity was investigated by treating 205y lipase (-SP/TM) with 1 mM and 10 mM of various metal chlorides ( Na^+, K^+, Mg^2+, Ca^2+, Fe^2+, Mn^2+, Zn^2+ and Cu^2+) in 50 mM potassium phosphate buffer pH 8.0 at 37°C for 30 min. The mixture was subjected to lipase assay after treatment and expressed as a percentage of activity without the metal chloride."}}, "note": "Values joined by “and” are separate entries in the source; they are usually repeats but may differ in a detail not shown here. Equal entries are not always repeated. Square brackets hold non-standard residues; d marks the D form. Peptide text beside a SMILES is read from it. * marks the point of attachment. Sta = CC(C)C[C@H](N)[C@@H](O)CC(=O)O; Isovaleryl = CC(C)CC(=O)*"}
{"compound": "Tween 60", "values": [{"measurement": "Relative activity (100%)", "setting": "[1]", "result": "34.0 ± 3.5", "unit": "%"}]}
{"compound": "O=C(O)CN(CCN(CC(=O)O)CC(=O)O)CC(=O)O", "note": "[EDTA, ethylenediaminetetraacetic acid]", "values": [{"measurement": "Relative activity (100%)", "setting": "[2]; 1 mM inhibitor", "result": "78.2% and 78.2 ± 1.8%"}, {"measurement": "Relative activity (100%)", "setting": "[2]; 10 mM inhibitor", "result": "40.1 ± 4.2", "unit": "%"}]}
{"compound": "CC#N", "note": "[acetonitrile]", "values": [{"measurement": "enhancement in activity", "setting": "[3]", "result": "more than 30%"}, {"measurement": "effect on lipase activity", "setting": "[4]", "result": "complete deactivation"}, {"measurement": "log P", "setting": "[5]", "result": -0.15}]}
{"compound": "[Ca+2]", "note": "[Ca^2+]", "values": [{"measurement": "effect on lipase activity", "setting": "[6]", "result": "promoted"}]}
{"compound": "CC(C)CC(=O)N[C@H](C(=O)N[C@H](C(=O)N[C@@H](CC(C)C)[C@@H](O)CC(=O)N[C@@H](C)C(=O)N[C@@H](CC(C)C)[C@@H](O)CC(=O)O)C(C)C)C(C)C", "note": "[Pepstatin A, pepstatin A] (Isovaleryl-VV[Sta]A[Sta]-OH)", "values": [{"measurement": "Relative activity (100%)", "setting": "[2]; 1 mM inhibitor", "result": "86.9 ± 1.5", "unit": "%"}]}
{"compound": "O[C@H](CS)[C@H](O)CS", "note": "(racemic) [DTT, dithiothreitol]", "values": [{"measurement": "inhibition", "setting": "[2]; 1 mM inhibitor", "result": 16.6, "unit": "%"}, {"measurement": "Relative activity (100%)", "setting": "[2]; 1 mM inhibitor", "result": "83.4 ± 2.0", "unit": "%"}, {"measurement": "Relative activity (100%)", "setting": "[2]; 10 mM inhibitor", "result": "45.5 ± 2.5", "unit": "%"}]}
{"compound": "[Zn+2]", "note": "[Zn^2+]", "values": [{"measurement": "activity retained", "setting": "[6]", "result": "> 50", "unit": "%"}]}
{"compound": "[Mg+2]", "note": "[Mg^2+]", "values": [{"measurement": "effect on lipase activity", "setting": "[6]", "result": "promoted"}]}
{"compound": "CCCCCCCCCCCCOS(=O)(=O)[O-].[Na+]", "note": "[SLS, sodium lauryl sulphate]", "values": [{"measurement": "Relative activity (100%)", "setting": "[1]; sulphate", "result": "52.5% and 52.5 ± 1.9%"}]}
{"compound": "CCO", "note": "[ethanol]", "values": [{"measurement": "enhancement in activity", "setting": "[3]", "result": "more than 30%"}]}
{"compound": "CCCCCCCCCCCC", "note": "[n-dodecane]", "values": [{"measurement": "lost in activity", "setting": "[3]", "result": "more than 50%"}, {"measurement": "log P", "setting": "[5]", "result": 6.6}]}
{"compound": "Tween 20", "values": [{"measurement": "Relative activity (100%)", "setting": "[1]", "result": "31.3 ± 1.1", "unit": "%"}]}
{"compound": "CCCCCC", "note": "[n-hexane]", "values": [{"measurement": "enzyme activity enhanced", "setting": "[4]", "result": 3.5, "unit": "fold"}]}
{"compound": "[Mn+2]", "note": "[Mn^2+]", "values": [{"measurement": "activity retained", "setting": "[6]", "result": "> 50", "unit": "%"}]}
{"compound": "CCCCCCCCCCO", "note": "[1-decanol]", "values": [{"measurement": "lost in activity", "setting": "[3]", "result": "more than 50%"}]}
{"compound": "Tween 80", "values": [{"measurement": "Relative activity (100%)", "setting": "[1]", "result": "29.4 ± 2.4", "unit": "%"}]}
{"compound": "Cc1ccc(C)cc1", "note": "[p-xylene]", "values": [{"measurement": "lost in activity", "setting": "[3]", "result": "more than 50%"}, {"measurement": "enzyme activity enhanced", "setting": "[4]", "result": 2.9, "unit": "fold"}, {"measurement": "log P", "setting": "[5]", "result": 3.1}]}
{"compound": "Cc1ccccc1", "note": "[toluene]", "values": [{"measurement": "lost in activity", "setting": "[3]", "result": "more than 50%"}]}
{"compound": "CO", "note": "[methanol]", "values": [{"measurement": "enhancement in activity", "setting": "[3]", "result": "more than 30%"}, {"measurement": "log P", "setting": "[5]", "result": -0.76}]}
{"compound": "CCCCCCCCCCCCCCCC", "note": "[hexadecane]", "values": [{"measurement": "enhancement in activity", "setting": "[3]", "result": "more than 30%"}, {"measurement": "log P", "setting": "[5]", "result": 8.8}]}
{"compound": "n-butanol", "values": [{"measurement": "lost in activity", "setting": "[3]", "result": "more than 50%"}]}
{"compound": "OCCS", "note": "[β-mercaptoethanol]", "values": [{"measurement": "inhibition", "setting": "[2]; 1 mM inhibitor", "result": 2.8, "unit": "%"}, {"measurement": "Relative activity (100%)", "setting": "[2]; 1 mM inhibitor", "result": "97.2 ± 2.7", "unit": "%"}, {"measurement": "Relative activity (100%)", "setting": "[2]; 10 mM inhibitor", "result": "76.3 ± 1.2", "unit": "%"}]}
{"compound": "Tween 40", "values": [{"measurement": "Relative activity (100%)", "setting": "[1]", "result": "27.9 ± 1.7", "unit": "%"}]}
{"compound": "O=S(=O)(F)Cc1ccccc1", "note": "[PMSF, phenylmethylsulfonyl fluoride]", "values": [{"measurement": "Relative activity (100%)", "setting": "[2]; 1 mM inhibitor", "result": "74.0 ± 3.3", "unit": "%"}, {"measurement": "Relative activity (100%)", "setting": "[2]; 10 mM inhibitor", "result": "70.3 ± 2.8", "unit": "%"}]}
{"compound": "[Na+]", "note": "[Na^+]", "values": [{"measurement": "activity retained", "setting": "[6]", "result": "> 50", "unit": "%"}]}
{"compound": "C[S+](C)[O-]", "note": "[DMSO, dimethyl sulfoxide]", "values": [{"measurement": "enhancement in activity", "setting": "[3]", "result": "more than 30%"}, {"measurement": "lipase activity lost", "setting": "[4]", "result": "approximately 80%"}]}
{"compound": "[Fe+2]", "note": "[Fe^2+]", "values": [{"measurement": "activity retained", "setting": "[6]", "result": "> 50", "unit": "%"}]}
{"compound": "Triton X-100", "values": [{"measurement": "Relative activity (100%)", "setting": "[1]", "result": "47.3 ± 4.4", "unit": "%"}]}
{"compound": "[Cu+2]", "note": "[Cu^2+]", "values": [{"measurement": "activity retained", "setting": "[6]", "result": "> 50", "unit": "%"}]}
{"compound": "[K+]", "note": "[K^+]", "values": [{"measurement": "effect on lipase activity", "setting": "[6]", "result": "promoted"}]}
{"compound": "CCCCCCCCCCCCOS(=O)(=O)[O-].[Na+]", "note": "[SDS, sodium dodecyl sulphate]", "values": [{"measurement": "Relative activity (100%)", "setting": "[1]; sulphate", "result": "28.9 ± 2.8", "unit": "%"}]}
{"compound": "CCCCCCCCCC", "note": "[n-decane]", "values": [{"measurement": "enhancement in activity", "setting": "[3]", "result": "more than 30%"}, {"measurement": "log P", "setting": "[5]", "result": 5.6}]}
